According to patent US8460906B2, “Immobilized product tolerant microorganisms” (Cobalt Technologies, Inc., priority 2008, dated 2013):
Like-named read-outs stand apart in the source and are kept apart here.

How the values were obtained:
[1] = tested on: Co-0124; settings: liquid P2+4% Xylose, 24 and 96 hr time points
Protocol: (§1) The next day, the OD600 of the seed train tubes was measured. […] Control tubes without inoculum were also prepared. Tubes were incubated in an anaerobic hood.
(§2) After 1 day and 3-4 days, the OD600 of liquid cultures was measured. Plates were examined for growth. […] OD600 at start (0 hr) was based on a 1:20 inoculation of the starter cultures.

[2] = tested on: Co-5673; settings: liquid P2+4% Xylose, 24 and 96 hr time points
Protocol: as §1, §2

[3] = tested on: Co-7449; settings: liquid P2+4% Xylose, 24 and 96 hr time points
Protocol: as §1, §2

[4] = tested on: Clostridium saccharobutylicum strain Co-7449; settings: for highest butanol concentration of plates showing growth: solid media P2+4% Xylose
Protocol: (§3) In some embodiments, solvent tolerant microorganisms are mutagenized and selected for increased solvent tolerance on solid support. In some embodiments, solvent tolerant mutants can be used for either solvent or organic acid production. […] In some embodiments of the present invention, solvent tolerance is a relative value that is measured by comparing the growth ability of a mutant microorganism on a semi-solid or solid support to the growth ability of the non-mutant parent microorganism on the same semi-solid or solid support. Typically, the semi-solid or solid support comprises a growth media and a specified concentration of a solvent that is usually measured on a volume to volume (v/v) basis. Generally, multiple containers, usually petri dishes, are filled with semi-solid or solid support representing a range of solvent concentration. […] The highest concentration at which colonies still form represents the solvent tolerance of the microorganism. An alternative solvent tolerance test method is to overlay the non-solvent support with a solution containing a specified concentration of a solvent.
(§4) On the first day, a seed train of a strain to be investigated was started in 5 ml cultures of P2+4% Xylose in the anaerobic hood. A 1-L volume of sterile P2 medium containing 4% Xylose and agar was prepared and place on hot plate. […] The solution was mixed well and plates were poured in a sterile environment. After the plates were solidified, they were transferred to the anaerobic hood and parafilmed immediately prior to storage overnight.
as §1, §2

[5] = tested on: mutants of C. saccharobutylicum strain Co-7449; settings: suspension culture, colonies from 5% butanol RCM plates
[6] = tested on: Co-0124; settings: solid media P2+4% Xylose
Protocol: as §4, §1, §2

[7] = tested on: Co-5673; settings: solid media P2+4% Xylose
Protocol: as §4, §1, §2

[8] = tested on: environmental sample (isolate)
Protocol: An environmental sample (isolate) is obtained. The isolate is plated on a set of identical plates containing a nutrient agar.

[9] = tested on: mutants of C. saccharobutylicum strain Co-7449
Protocol: as §3
Clostridium saccharobutylicum strain Co-7449 was grown in yeast extract medium (YEM) to an approximate OD600 of 3 and was treated with a final concentration of 50 μg/ml N-methyl-N′-nitro-N-nitrosoguanidine (MNNG) for 15 minutes. Cells were twice washed with glucose-free YEM and plated on Reinforced Clostridium Medium (RCM) at 10^−3 and 10^−4 dilution to recover 3000-4000 colonies.

butanol
highest butanol concentration at which OD600 increased [1]: 1.6 % (v/v) | highest butanol concentration at which OD600 increased [2]: 1.4 % (v/v) | highest butanol concentration at which OD600 increased [3]: 1.4 % (v/v) | butanol tolerance result on solid media ([4]; 24 hr, separate experiment): 2.1% | highest butanol concentration of plates showing growth ([4]; 24 hour): 0% | highest butanol concentration of plates showing growth ([4]; 96 hour): 2.2% | growth in YEM with 1.2% butanol added to the broth [5]: did not grow | highest butanol concentration of plates showing growth ([6]; 24 hour): 2.2% | highest butanol concentration of plates showing growth ([6]; 96 hour): 2.3% | highest butanol concentration of plates showing growth ([7]; 24 hour): 2.2% | highest butanol concentration of plates showing growth ([7]; 96 hour): 2.2% | butanol concentration the adapted strain grows in ([8]; after 20 passages on solid support with increasing butanol): 2.5% | highest butanol concentration of plates with colonies ([8]; unadapted isolate, no growth at 1.8% or 2.0%): 1.6% | tolerance for butanol compared to the parent Co-7449 strain ([9]; mutants grown on a solid support): at least a two-fold higher tolerance | growth on 5% butanol plates after culture in YEM without butanol ([9]; samples removed from liquid YEM, plated on 5% butanol plates): failed to grow | relative solvent tolerance of the mutants versus non-mutant parent strain ([9]; {}): at least 225%
